Experimental data: patent US12673947B2 (Cytosinlab Therapeutics Co., Ltd., priority 2020, dated 2026)
pIC50: −log10 of the molar value.

Key:
FLT3 = target: T1, FLT3 (Homo sapiens, UniProt P36888); experiment: FLT3 kinase in vitro inhibitory activity experiment (Caliper mobility shift, conversion rate); type: biochemical; conditions: IC50 class, read-out: Enzyme activity FLT3
T1 construct: purchased Carna 08-145
T1 sequence (P36888 27-993): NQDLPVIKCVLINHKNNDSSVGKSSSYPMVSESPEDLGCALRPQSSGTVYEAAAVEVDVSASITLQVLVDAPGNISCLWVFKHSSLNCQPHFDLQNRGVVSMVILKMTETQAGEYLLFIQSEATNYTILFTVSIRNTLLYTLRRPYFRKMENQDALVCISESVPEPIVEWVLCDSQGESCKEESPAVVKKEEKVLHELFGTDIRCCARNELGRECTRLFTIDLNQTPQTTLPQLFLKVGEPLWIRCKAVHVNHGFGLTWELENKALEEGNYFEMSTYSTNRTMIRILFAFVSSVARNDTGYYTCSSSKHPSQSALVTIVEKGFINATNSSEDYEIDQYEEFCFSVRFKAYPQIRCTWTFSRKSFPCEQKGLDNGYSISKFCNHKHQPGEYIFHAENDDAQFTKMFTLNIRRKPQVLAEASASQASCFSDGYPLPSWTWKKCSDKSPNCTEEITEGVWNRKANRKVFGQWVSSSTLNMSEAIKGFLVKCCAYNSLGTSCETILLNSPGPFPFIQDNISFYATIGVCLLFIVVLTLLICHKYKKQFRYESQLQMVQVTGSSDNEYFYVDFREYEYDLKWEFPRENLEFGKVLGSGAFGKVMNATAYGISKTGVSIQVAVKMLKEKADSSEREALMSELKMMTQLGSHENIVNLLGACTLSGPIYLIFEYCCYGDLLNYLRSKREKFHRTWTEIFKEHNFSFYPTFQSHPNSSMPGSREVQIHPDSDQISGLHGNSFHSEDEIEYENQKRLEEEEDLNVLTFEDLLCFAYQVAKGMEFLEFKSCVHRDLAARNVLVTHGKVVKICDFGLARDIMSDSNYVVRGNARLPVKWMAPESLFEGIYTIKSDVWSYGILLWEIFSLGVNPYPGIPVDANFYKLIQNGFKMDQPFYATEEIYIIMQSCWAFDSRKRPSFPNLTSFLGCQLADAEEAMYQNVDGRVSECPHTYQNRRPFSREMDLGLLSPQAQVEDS
Method: Biological Test Example 1: FLT3 Kinase In Vitro Inhibitory Activity Experiment
Centrifuge (manufacturer: Eppendorf, model: 5430), microplate reader (manufacturer: Perkin Elmer, model: Caliper EZ Reader II), Echo 550 (manufacturer: Labcyte, model: Echo 550)
1. Kinase Reaction Process
• (1) 1×Kinase buffer was prepared. • (2) Preparation of the serial compound dilutions: the initial stock (the concentration of the tested compound was 1 μM) was diluted by 3-fold into 10 concentrations, and was single-well detected. The compounds were series diluted to solutions of 10 different concentration (100-folds final concentration) in 384-well plates. 250 nl of solution was transferred to each well of 384-well plate by Echo550. 100% DMSO (250 nl) was added to negative control wells and positive control wells respectively. • (3) Kinase solution (2.5 times final concentration) was prepared with 1×Kinase buffer. • (4) 10 μL of kinase solution (2.5 times final concentration) was added to compound wells and positive control wells respectively: 1×Kinase buffer (10 μL) was added to the negative control wells. • (5) The solution was centrifuged at 1000 rpm for 30 seconds, shaked and mixed, and incubated at room temperature for 10 minutes. • (6) The mixed solution of ATP and Kinase substrate 2 (25/15 times final concentration) was prepared with 1×Kinase buffer. • (7) 15 μL of mixed solution ATP and Kinase substrate 2 (25/15 times final concentration) was added to initiated the reaction. • (8) 384 well plate was centrifuged at 1000 rpm for 30 seconds, shaked and mixed, then incubated at room temperature for 30 minutes. • (9) Stop solution (30 μL) was added to stop kinase reaction, and the solution was centrifuged at 1000 rpm for 30 seconds, shaked and mixed. • (10) The conversion rate was read with Caliper EZ Reader II. 2. Data Analysis Formula for Calculation
Wherein: Conversion %_sample is the reading of the sample conversion; Conversion %_min: negative control well.

MV4;11 cells = experiment: MV4;11 in vitro inhibition of proliferation assay (CellTiter-Glo, 72 hours); type: cell-based; conditions: Homo sapiens, MV4-11, 72 h, IC50 class, read-out: Inhibitory activity of cell proliferation MV4;11
Text: Biological Test Example 2: MV4;11 In Vitro Inhibition of Proliferation Assay
The MV4;11 cell lines were purchased from the cell bank of the Chinese Academy of Sciences, IMDM medium (Gibco, catalog number 12440), fetal bovine serum (Gibco, catalog number 10099141C), penicillin-streptomycin antibiotics (Gibco, catalog number 15140122), DMSO (Sigma, catalog number D2650), Celltiter-Glo kit (CTG) (Promega, catalog number G7573), 384-well clear flat-bottom black cell culture plate (Corning, catalog number 3764), D300e digital dispenser (Tecan, catalog number D300e), SpectraMax i3x microplate reader (MOLECULAR DEVICES, catalog number i3x)
MV4;11 cell was cultivated in IMDM, 10% fetal bovine serum, 1% penicillin-streptomycin antibiotics, and cell density was kept less than 1.0*10E6 cells per ml to ensure that it was always in logarithmic growth phase. Cell viability was greater than 95%.
The compounds to be tested was diluted by 3 times from 10 uM with DMSO to 9 concentrations. 60 nl diluted compound was added to the cell culture plate and three duplicates were set up.
The prepared MV4;11 cell suspension was added to the 384-well plate, and 20 microliters of cell suspension was added per well, i.e., each well contained 2000 MV4;11 cells, of which the final concentration of DMSO was 0.3%. The cell culture plate was placed in 37° C. and incubated in a 5% carbon dioxide incubator for 72 hours.
20 μL of Promega CellTiter-Glo reagent was added to per well, and the plate was incubated at room temperature for 10 minutes when the luminescence signals were stable. SpectraMax i3x microplate reader was used to read signals.
The original data was converted into inhibition rate, and the IC50 value (half inhibition concentration) of the compound was determined by fitting the nonlinear four-parameter curve.

Row | pIC50 (FLT3) | pIC50 (MV4;11 cells) | Compound
1 | 7.00 to 8.00 | 6.30 to 7.00 | CCc1nc2c(N)ncc(-c3cccc(CN4CCC(N5CCN(C)CC5)CC4)c3)c2nc1NC1CCOCC1 [Compound 43, 3-ethyl-8-(3-((4-(4-methylpiperazine-1-yl)piperidine-1-yl)methyl)phenyl)-N2-(tetrahydro-2H-pyran-4-yl)pyrido[3,4-b]pyrazine-2,5-diamine]
2 | 7.00 to 8.00 | < 6.30 | CCc1nc2c(N)ncc(-c3ccc(CN4CCC(N5CCN(C)CC5)CC4)c(OC)c3)c2nc1NC1CCOCC1 [Compound 44]
3 | ≥ 8.00 | 7.00 to 8.00 | CCc1nc2c(N)ncc(-c3ccc(N4CCC(CN5CCN(C)CC5)CC4)c(OC)c3)c2nc1NC1CCOCC1 [Compound 45, 3-ethyl-8-(3-methoxy-4-(4-((4-methylpiperazine-1-yl)methyl)piperidine-1-yl)phenyl)-N2-(tetrahydro-2H-pyran-4-yl)pyridino[3,4-b]pyrazine-2,5-diamine]
4 | ≥ 8.00 | 7.00 to 8.00 | CCc1nc2c(N)ncc(-c3ccc(N4CCC(N5CCN(C)CC5)C4)c(OC)c3)c2nc1NC1CCOCC1 (stereo not shown) [Compound 46]
5 | ≥ 8.00 | 7.00 to 8.00 | CCc1nc2c(N)ncc(-c3ccc(N4CCC(N(C)CCN(C)C)CC4)c(OC)c3)c2nc1NC1CCOCC1 [Compound 48]
6 | ≥ 8.00 | 7.00 to 8.00 | CCc1nc2c(N)ncc(-c3cnn(C4CCNCC4)c3)c2nc1NC1CCOCC1 [Compound 58]
7 | ≥ 8.00 | 7.00 to 8.00 | CCc1nc2c(N)ncc(-c3ccc(N4CCC(N5CCN(C)CC5)CC4)c(OC)c3)c2nc1N[C@H]1CC[C@H](O)CC1 [Compound 65]
8 | ≥ 8.00 | 7.00 to 8.00 | CCc1nc2c(N)ncc(-c3ccc(N4CCC(N5CCN(C)CC5)CC4)c(OC)c3)c2nc1NC1CCN(C)CC1 [Compound 66]
9 | ≥ 8.00 | 7.00 to 8.00 | CCc1nc2c(N)ncc(-c3ccc(N4CCC(N5CCN(C)CC5)CC4)c(OC)c3)c2nc1NC1CCC(O)C1 (stereo not shown) [Compound 67]
10 | ≥ 8.00 | 7.00 to 8.00 | CCc1nc2c(N)ncc(-c3ccc(N4CCC(N5CCN(C)CC5)CC4)c(OC)c3)c2nc1NCC(C)(C)O [Compound 68]
11 | ≥ 8.00 | 6.30 to 7.00 | CCc1nc2c(N)ncc(-c3ccc(N4CCC(N5CCN(C)CC5)CC4)c(OC)c3)c2nc1N[C@H]1CC[C@H](O)C1 [Compound 69]
12 | ≥ 8.00 | ≥ 8.00 | CCc1nc2c(N)ncc(-c3ccc(N4CCC(N5CCN(C)CC5)CC4)c(OC)c3)c2nc1N[C@@H]1CC[C@@H](O)C1 [Compound 70]
13 | ≥ 8.00 | 7.00 to 8.00 | CCc1nc2c(N)ncc(-c3ccc(N4CCC(N5CCN(C)CC5)CC4)c(OC)c3)c2nc1N[C@H]1CC[C@@H](O)C1 [Compound 71]
14 | ≥ 8.00 | ≥ 8.00 | CCc1nc2c(N)ncc(-c3ccc(N4CCC(N5CCN(C)CC5)CC4)c(OC)c3)c2nc1N[C@@H]1CC[C@H](O)C1 [Compound 72]
15 | ≥ 8.00 | 7.00 to 8.00 | CCc1nc2c(N)ncc(-c3ccc(N4CCC(N5CCN(C)CC5)CC4)c(OC)c3)c2nc1NC(C)C [Compound 77]
16 | ≥ 8.00 | 7.00 to 8.00 | CCc1nc2c(N)ncc(-c3ccc(N4CCC(N5CCN(C)CC5)CC4)c(OC)c3)c2nc1NC1CCCC1O (stereo not shown) [Compound 78]

Row | pIC50 (FLT3) | pIC50 (MV4;11 cells) | Compound
17 | ≥ 8.00 | 7.00 to 8.00 | CCc1nc2c(N)ncc(-c3ccc(N4CCC(N5CCN(C)CC5)CC4)c(OC)c3)c2nc1NC1CCOC1 (stereo not shown) [Compound 79]
18 | ≥ 8.00 | 7.00 to 8.00 | CCc1nc2c(N)ncc(-c3ccc(N4CCC(N5CCN(C)CC5)CC4)c(OC)c3)c2nc1NC1CCCOC1 (stereo not shown) [Compound 83]
19 | ≥ 8.00 | 7.00 to 8.00 | CCc1nc2c(N)ncc(-c3ccc(N4CCC(N5CCN(C)CC5)CC4)c(OC)c3)c2nc1NCC1CCOCC1 [Compound 85]
20 | ≥ 8.00 | 7.00 to 8.00 | CCc1nc2c(N)ncc(-c3ccc(N4CCC(N5CCN(C)CC5)CC4)c(OC)c3)c2nc1NC1CCCC1 [Compound 92]
21 | ≥ 8.00 | 7.00 to 8.00 | [2H]C([2H])([2H])N1CCN(C2CCN(c3ccc(-c4cnc(N)c5nc(CC)c(NC6CCOCC6)nc45)cc3OC)CC2)CC1 [Compound 121]
22 | ≥ 8.00 | 7.00 to 8.00 | CCc1nc2c(N)ncc(-c3cnn(C4CCN(C5CCN(C)CC5)CC4)c3)c2nc1NC1CCC(O)C1 (stereo not shown) [Compound 134, 3-((5-amino-3-ethyl-8-(1-(1′-methyl-[1,4′-bipiperidine]-4-yl)-1H-pyrazol-4-yl)pyridino[3,4-b]pyrazine-2-yl)amino)cyclopentan-1-ol]
23 | ≥ 8.00 | 7.00 to 8.00 | CCc1nc2c(N)ncc(-c3cnn(C4CCN(C5CCN(C)CC5)CC4)c3)c2nc1NC1CCOCC1 [Compound 135]
24 | ≥ 8.00 | 7.00 to 8.00 | CCc1nc2c(N)ncc(-c3cnn(C4CCN(C)CC4)c3)c2nc1NC1CCOCC1 [Compound 136]
25 | 6.30 to 7.00 | < 6.30 | CCc1nc2c(N)ncc(-c3ccn(C)n3)c2nc1NC1CCOCC1 [Compound 138]
26 | ≥ 8.00 | 7.00 to 8.00 | CCc1nc2c(N)ncc(-c3ccc(N4CCC(N5CCN(C)CC5)CC4)c(OC(F)F)c3)c2nc1NC1CCOCC1 [Compound 139]
27 | ≥ 8.00 | 7.00 to 8.00 | CCc1nc2c(N)ncc(-c3cnn(CC4CCN(C5CCN(C)CC5)CC4)c3)c2nc1NC1CCOCC1 [Compound 155]
28 | ≥ 8.00 | 7.00 to 8.00 | CCc1nc2c(N)ncc(-c3cnn(C4CCN(CCO)CC4)c3)c2nc1NC1CCOCC1 [Compound 156]
29 | ≥ 8.00 | 7.00 to 8.00 | CCc1nc2c(N)ncc(-c3cnn(C4CCN(CC5CCNCC5)CC4)c3)c2nc1NC1CCOCC1 [Compound 157]
30 | ≥ 8.00 | 7.00 to 8.00 | CCc1nc2c(N)ncc(-c3cnn(C4CCN(CC5CCN(C)CC5)CC4)c3)c2nc1NC1CCOCC1 [Compound 158]
31 | ≥ 8.00 | 7.00 to 8.00 | CCc1nc2c(N)ncc(-c3cnn(C4CCN(C5CCNCC5)CC4)c3)c2nc1NC1CCOCC1 [Compound 160]

Row | Compound | pIC50 (FLT3) | pIC50 (MV4;11 cells)
32 | CCc1nc2c(N)ncc(-c3cnn(C4C[C@H]5CC[C@@H](C4)N5C(C)C)c3)c2nc1N[C@@H]1CC[C@H](O)C1 (stereo partly shown) [Compound 166] | ≥ 8.00 | ≥ 8.00
